Where only a bound is given, the exact number is not on record here.

The test system of the assay is Aβ42 (human neuroglioma H4 cells expressing human wild type APP751). The assay is described as follows: In vitro cell screening assay with sandwich ELISA quantification of Aβ42 peptide. The assay is classed as cell-based. The note with it: H4 cells stably expressing human wild type APP751; Pro293 chemically defined medium; compounds 0.003-10 μM; incubated overnight (16-18 h); supernatant Aβ42 by sandwich ELISA; normalized to DMSO and DAPT; read-out: Aβ42 H4 Prot Fre IC50. Here is the method:
Human neuroglioma H4 cells were transfected with a pcDNA3.1 plasmid expressing human wild type APP751 cDNA and a stable cell line was generated using G418 selection. Cells are plated at 15,000 cells/well in Costar 96-well plates and placed at 37° C. and 5% CO2. Six hours after plating, cells are washed three times with Pro293™ chemically defined medium, followed by addition of compounds (0.003-10 μM, final DMSO concentration of 0.33%). Plates were incubated overnight (16-18 h) and supernatant was removed for quantification of AP peptides by sandwich ELISA. Cytotoxicity was evaluated using Cell-Titer 96W AQueous One Solution Cell Proliferation Assay according to the manufacturer's protocol.
ELISA Measurements of Aβ Peptides
Aβ peptide levels were quantified by sandwich ELISA. 96-well plates are coated with C-terminal specific Aβ antibodies recognizing either Aβ37, Aβ38, Aβ40, Aβ42, Aβ43 or a N-terminal specific Aβ antibody to detect Aβ 1-x. Plates are then blocked overnight at 4° C. with 1% bovine serum albumin (BSA) in PBS-T. Plates are washed and 100 μl of cultured cell supernatant or synthetic Aβ peptide standards and a detection antibody (4G8-HRP) are applied to the blocked plate and incubated overnight at 4° C. The next day, wells are washed before the addition […] of detection substrate (TMB peroxidase). Plates are then read for absorbance at 450 nm on a Molecular Devices SpectraMax M5e Microplate Reader.
IC50 values were calculated from values reported as percent of DMSO controls using nonlinear regression, based on a sigmoidal dose-response (variable slope) model. GraphPAD software from Prism used for calculation.
Turning to `COc1cc(Nc2ncc3c(n2)N(C)C(c2ccc(Cl)cc2C(F)(F)F)CO3)ccc1-c1ccnc(C)c1` (single isomer, unassigned; (+)) [Example 107B], the IC50 is 174 nM.

`COc1ccc(C)c(C2COc3cnc(Nc4cnc(-n5cnc(C)c5)c(OC)c4)nc3N2C)c1` (single isomer, unassigned; (+)) [Example 207A]: the IC50 turned out to be 10 nM.

As to `COc1cc(Nc2ncc3c(n2)N(C)C(c2ccccc2OC(F)(F)F)CO3)ccc1-c1ccnc(C)c1` (single isomer, unassigned; (-)) [Example 62A], the IC50 is 339 nM.

In the case of `COc1nc(Nc2ncc3c(n2)N(C)C(c2cc(F)c(F)cc2F)CO3)ccc1-n1cnc(C)c1` (racemic) [Example 191], the IC50 was determined as 2250 nM.

Regarding `COc1cc(Nc2ncc3c(n2)N(C)C(C2CCC(F)(F)CC2)CO3)ccc1-n1cnc(C)c1` (single isomer, unassigned; (-)) [Example 216A], the IC50 stood at 320 nM.

As to `COc1cc(Nc2ncc3c(n2)N(C)[C@H](c2ccccc2)CO3)ccc1-n1cnc(C)c1` [Example 22A, (R)—N-(3-methoxy-4-(4-methyl-1H-imidazol-1-yl)phenyl)-8-methyl-7-phenyl-7,8-dihydro-6H-pyrimido[5,4-b][1,4]oxazin-2-amine], the IC50 worked out at 87 nM.

For the compound `Cc1cn(-c2ccc(Nc3ncc4c(n3)N(C)C(c3cc(F)c(F)cc3C(F)(F)F)CO4)cc2F)cn1` (single isomer, unassigned) [Example 198B], the concentration for half-maximal inhibition (IC50) was 101 nM.

As for `Cc1cn(-c2ccc(Nc3ncc4c(n3)N(C)C(c3cc(F)c(F)c(F)c3)CO4)cc2F)cn1` (racemic) [Example 38], the IC50 was determined as 32 nM.

For `COc1ccc(Cl)c(C2COc3cnc(Nc4cnc(-n5cnc(C)c5)c(OC)c4)nc3N2C)c1` (single isomer, unassigned; (-)) [Example 208B], the IC50 was determined as 136 nM.

`CN1c2nc(Nc3ccc(C#N)cc3)ncc2OCC1C(F)(F)F` (single isomer, unassigned; (-)) [Example 226B, (−)-4-((8-methyl-7-(trifluoromethyl)-7,8-dihydro-6H-pyrimido [5,4-b] [1, 4]oxazin-2-yl)amino) benzonitrile]: the IC50 is over 3000 nM.

On to `COc1cc(Nc2ncc3c(n2)N(C)C(C)(C)CO3)ccc1-c1cnn(C)c1` [Example 267], for which the IC50 turned out to be 822 nM.

Regarding `Cc1cn(-c2ccc(Nc3ncc4c(n3)N(C)C(c3cc(F)c(F)c(F)c3)CO4)cc2)cn1` (single isomer, unassigned; (+)) [Example 115B], the IC50 is 22 nM.

Regarding `COc1cc(Nc2ncc3c(n2)N(C)C(c2ccccc2C)CO3)ccc1-c1ccnc(C)c1` (racemic) [Example 35], the IC50 was found to be 87 nM.

Consider `Cc1cn(-c2ccc(Nc3ncc4c(n3)N(C)C(c3ccccc3C)CO4)cc2F)cn1` (single isomer, unassigned; (-)) [Example 34B], for which the IC50 is 460 nM.

Turning to `COc1cc(Nc2ncc3c(n2)N(C)C(Cc2ccccc2)CO3)ccc1-c1ccnc(C)c1` (single isomer, unassigned; (-)) [Example 68B], the IC50 came to 229 nM.

Take `COc1cc(Nc2ncc3c(n2)N(C)C(c2cc(F)cc(F)c2)CO3)cnc1-n1cnc(C)c1` (single isomer, unassigned; (-)) [Example 189B]: the IC50 was determined as 655 nM.

Consider `Cc1cn(-c2ccc(Nc3ncc4c(n3)N(C)C(c3ccc(F)cc3)CO4)cc2F)cn1` (single isomer, unassigned; (+)) [Example 58A], for which the IC50 came to 28 nM.

As for `COc1cc(Nc2ncc3c(n2)N(C)C(c2cc(F)cc(F)c2)CO3)ccc1-n1cnc(C)c1` (single isomer, unassigned; (+)) [Example 30B], the IC50 came out at 23 nM.

Turning to `Cc1cn(-c2ccc(Nc3ncc4c(n3)N(C)C(c3cc(F)cc(F)c3)CO4)cc2F)cn1` (racemic) [Example 33], the IC50 was 38 nM.

Regarding `COc1cc(Nc2ncc3c(n2)N(C)C(c2ccc(C(F)(F)F)cc2C(F)(F)F)CO3)ccc1-n1cnc(C)c1` (single isomer, unassigned; (-)) [Example 168A], the IC50 came out at 566 nM.

On to `Cc1cn(-c2ncc(Nc3ncc4c(n3)N(C)C(C(F)(F)F)CO4)cc2Cl)cn1` (single isomer, unassigned; (+)) [Example 229B], for which the IC50 came out at 2850 nM.

`Cc1cn(-c2ccc(Nc3ncc4c(n3)N(C)C(C)(C)CO4)cc2F)cn1` [Example 255]: the IC50 worked out at 488 nM.

As to `COc1cc(Nc2ncc3c(n2)N(C)C(C2COC2)CO3)ccc1-n1cnc(C)c1` (single isomer, unassigned; (-)) [Example 241A], the IC50 is 390 nM.

In the case of `COc1nc(Nc2ncc3c(n2)N(C)C(c2cc(F)c(F)c(F)c2)CO3)ccc1-n1cnc(C)c1` (single isomer, unassigned; (+)) [Example 188B], the IC50 worked out at 275 nM.

Regarding `Cc1cn(-c2ccc(Nc3ncc4c(n3)N(C)C(c3cc(F)c(F)cc3C(F)(F)F)CO4)cc2F)cn1` (single isomer, unassigned) [Example 198A], the IC50 was found to be 1110 nM.

Take `Cc1cn(-c2ccc(Nc3ncc4c(n3)N(C)C(c3ccccc3C)CO4)cc2)cn1` (single isomer, unassigned; (+)) [Example 43A]: the IC50 stood at 31 nM.

On to `COc1ccc(Cl)c(C2COc3cnc(Nc4cnc(-n5cnc(C)c5)c(OC)c4)nc3N2C)c1` (single isomer, unassigned; (+)) [Example 208A], for which the IC50 was found to be 20 nM.

`COc1cc(Nc2ncc3c(n2)N(C)C(C)(C)CO3)cnc1-c1cnn(C)c1` [Example 270]: the concentration for half-maximal inhibition (IC50) is over 3000 nM.

Consider `COc1cc(Nc2ncc3c(n2)N2CCC[C@]2(C)CO3)ccc1-n1cnc(C)c1` [Example 294, (R)-N-(3-methoxy-4-(4-methyl-1H-imidazol-1-yl)phenyl)-6a-methyl-6a, 7,8,9-tetrahydro-6H-pyrimido [5,4-b] pyrrolo [1,2-d] [1, 4] oxazin-2-amine], for which the IC50 was found to be 80 nM.

`Cc1cc(-c2ccc(Nc3ncc4c(n3)N(C)C(c3cc(F)cc(F)c3)CO4)cc2)ccn1` (racemic) [Example 28]: the IC50 was 90 nM.

With `COc1nc(Nc2ncc3c(n2)N(C)C(c2ccccc2C)CO3)ccc1-n1cnc(C)c1` (single isomer, unassigned; (+)) [Example 180B], the IC50 amounted to 374 nM.

For `Cc1cc(-c2ccc(Nc3ncc4c(n3)N(C)C(c3ccc(F)cc3)CO4)cc2F)ccn1` (single isomer, unassigned; (-)) [Example 56B], the half-maximal inhibitory concentration (IC50) stood at 3460 nM.

As to `COc1cc(Nc2ncc3c(n2)N(C)C(c2ccccc2Cl)CO3)ccc1-c1ccnc(C)c1` (single isomer, unassigned; (-)) [Example 85A], the IC50 is 292 nM.

In the case of `Cc1cn(-c2ccc(Nc3ncc4c(n3)N3CCOC[C@@H]3CO4)cc2F)cn1` [Example 300], the IC50 was determined as 781 nM.

For the compound `COc1cc(Nc2ncc3c(n2)N(C)C(c2ccc(C(F)(F)F)cc2C(F)(F)F)CO3)ccc1-n1cnc(C)c1` (racemic) [Example 91], the IC50 was determined as 110 nM.

Turning to `COc1cc(Nc2ncc3c(n2)N(C)C(C2CCOCC2)CO3)ccc1-n1cnc(C)c1` (single isomer, unassigned; (-)) [Example 114A], the IC50 amounted to 494 nM.

On to `Cc1cc(-c2ccc(Nc3ncc4c(n3)N(C)C(c3ccccc3C)CO4)cc2F)ccn1` (racemic) [Example 32], for which the IC50 was found to be 168 nM.

As for `COc1cc(Nc2ncc3c(n2)N(C)C(c2ccc(Cl)cc2C(F)(F)F)CO3)ccc1-n1cnc(C)c1` (single isomer, unassigned; (+)) [Example 112B], the IC50 is 64 nM.

Consider `Cc1cn(-c2ccc(Nc3ncc4c(n3)N(C)C(c3cc(Cl)ccc3C(F)(F)F)CO4)cc2F)cn1` (single isomer, unassigned; (+)) [Example 100A], for which the 50% inhibitory concentration (IC50) amounted to 101 nM.

Turning to `COc1ccc(C2COc3cnc(Nc4ccc(-n5cnc(C)c5)c(OC)c4)nc3N2C)c(C)c1` (single isomer, unassigned; (-)) [Example 199B], the IC50 was found to be 95 nM.

Take `Cc1cn(-c2ccc(Nc3ncc4c(n3)N(C)C(c3ccc(Cl)cc3C(F)(F)F)CO4)cc2F)cn1` (single isomer, unassigned; (-)) [Example 106B]: the IC50 stood at 1020 nM.

On to `Cc1cn(-c2ccc(Nc3ncc4c(n3)N(C)C(c3ccccc3Cl)CO4)cc2F)cn1` (single isomer, unassigned; (+)) [Example 67A], for which the IC50 was found to be 124 nM.

Consider `Cc1cn(-c2ccc(Nc3ncc4c(n3)N(C)C(C3CCOCC3)CO4)cc2F)cn1` (single isomer, unassigned; (-)) [Example 109B], for which the IC50 is over 3000 nM.

On to `COc1cc(Nc2ncc3c(n2)N(C)C(c2ccc(F)cc2F)CO3)ccc1-c1ccnc(C)c1` (single isomer, unassigned; (-)) [Example 63A], for which the IC50 stood at 543 nM.

On to `Cc1cn(-c2ccc(Nc3ncc4c(n3)N(C)C(c3cc(F)cc(F)c3)CO4)cc2F)cn1` (single isomer, unassigned; (-)) [Example 33B], for which the half-maximal inhibitory concentration (IC50) was 389 nM.

As to `COc1cc(Nc2ncc3c(n2)N(C)C(c2ccc(F)cc2F)CO3)ccc1-n1cnc(C)c1` (single isomer, unassigned; (-)) [Example 48A], the IC50 was 328 nM.
